# Tests used:
# [1] = system: TMR-cC0-C2 (C0-C2 fragment of human cMyBP-C); assay: FLT-TMR concentration-response assay (FLT of TMR on cC0-C2, no actin); assay type: binding; conditions: for cC0-C2/cC0-C2#P (ratio of FLT changes) / cC0-C2 FLT change (% change from DMSO, FLT of TMR-MyBP-C): 60 μM compound; for effect on FLT of TMR-cC0-C2 (in words): concentration-response, no actin
# Protocol: (§1) Compounds identified as initial hits were further examined to determine the concentration–response curves for seven conditions ([1]): FMAL-actin alone identified actin-binding compounds that alter the FLT of FMAL-actin ([2]).
# (§2) Fluorescence lifetime (FLT) measurements were acquired using a high-throughput FLT plate reader (Fluorescence Innovations, Inc) ([14], [27]), provided by Photonic Pharma LLC. […] The observed waveforms were analyzed as described previously ([15], [28]).
# (§3) The primary hits were dissolved in DMSO to make a 10 mM stock solution, which was serially diluted in 96-well mother plates. Hits were screened at eight concentrations (0.5–100 μM). […] Compounds (1 μl) were transferred from the mother plates into 384-well plates using a Mosquito HV liquid handler (TTP Labtech Ltd, Hertfordshire, UK). The same procedure of dispensing as for the pilot screening was applied in the concentration-response assays. Concentration dependence of the FLT-FRET (E/EDMSO) or FLT-TMR (Δτ) change data was fit to a Hill equation only under certain conditions to help guide the eye (Fig. 4).
# [2] = system: PKA-phosphorylated TMR-cC0-C2 (cC0-C2#P); assay: FLT-TMR concentration-response assay, PKA-phosphorylated cC0-C2; assay type: binding, human; conditions: 60 μM compound
# Protocol: as §1, §2, §3
# [3] = system: TMR-fC1-C2 (C1-C2 of fast skeletal MyBP-C); assay: FLT-TMR concentration-response assay, fC1-C2; assay type: binding; conditions: 60 μM compound
# Protocol: as §1, §2, §3
# [4] = system: FMAL-actin plus TMR-cC0-C2; assay: Selleck library HTS, 473 nm excitation (FLT of FMAL-actin with TMR-cC0-C2, FLT-FRET); assay type: binding, human; conditions: for 473-nm Δτ, Repeat 1 / 473-nm Δτ, Repeat 2: initial screen, 30 μM compound; for 473-nm z-score (based on avg Δτ): robust z-score, hit threshold ±4, 30 μM compound
# Protocol: as §2
# (§4) In total, 50 nl of each solution was dispensed in DMSO using an automated Echo 550 acoustic liquid dispenser (Labcyte). Compounds were formatted into the assay plates, at a final concentration of 30 μM, with the first two and second to last columns loaded with DMSO only (compound-free controls). In the final column, 30 μM of suramin was loaded as a positive control (tool compound). These assay plates were then heat-sealed using a PlateLoc Thermal Microplate Sealer (Agilent Technologies) and stored at −20 °C. Before screening, compound plates were equilibrated to room temperature (∼25 °C). […] Plates were incubated at room temperature for 60 min before recording the data with the fluorescence lifetime plate reader.
# After fitting the waveforms with a single exponential decay to quantify donor FLT, the change in FLT (Δτ) was computed by performing a moving median subtraction in the order the plate was scanned with a window size of half a plate row […]. The reasons for this are twofold. Firstly, plate gradients are often observed due to the heating of the digitizer during acquisition.
# To account for the necessity to correct for plate gradients in the computation of E, the median τDMSO prior to the application of the moving median correction was added to each well’s Δτ value to recover a rescaled value of τ.
# [5] = system: TMR-cC0-C2; assay: Selleck library HTS, 532 nm excitation (FLT of TMR-cC0-C2 in presence of FMAL-actin); assay type: binding, human; conditions: for 532-nm Δτ, Repeat 1 / 532-nm Δτ, Repeat 2: initial screen, 30 μM compound; for 532-nm z-score (based on avg Δτ): robust z-score, hit threshold ±4, 30 μM compound; for effect on FLT of TMR-cC0-C2 in the initial screen (in words): both replicates, actin present
# Protocol: as §2, §4
# Hits that exceeded the z-score hit criteria in the donor-only screen were excluded from consideration. To remove compounds with confounding fluorescence properties, a similarity index (SI, specifically the cosine distance, Equation 5) was computed using data from the SUPR instrument by comparing a region (500–540 nm) of the donor-only spectrum (I^(a)) for each well to that of the plate-wide average DMSO spectrum (I^(b)) in the same wavelength band ([29]). Compounds that exceeded an SI robust z-score of 4 were deemed likely fluorescent compounds and removed from consideration.(5) SI=1−∑Ii(a).Ii(b)/∑Ii(a).Ii(a)∑Ii(b).Ii(b)
# [6] = system: FMAL-actin/TMR-cC0-C2 interaction; assay: FLT-FRET concentration-response assay, FMAL-actin plus TMR-cC0-C2; assay type: binding, human; conditions: unphosphorylated cC0-C2
# Protocol: as §1, §2, §3
Structure (SMILES),cC0-C2/cC0-C2#P (ratio of FLT changes) [1],"cC0-C2 FLT change (% change from DMSO, FLT of TMR-MyBP-C) [1] [%]","cC0-C2#P FLT change (% change from DMSO, FLT of TMR-MyBP-C) [2] [%]",cC0-C2/fC1-C2 (ratio of FLT changes) [3],"fC1-C2 FLT change (% change from DMSO, FLT of TMR-MyBP-C) [3] [%]","473-nm Δτ, Repeat 1 [4] [ns]","473-nm Δτ, Repeat 2 [4] [ns]",473-nm z-score (based on avg Δτ) [4],"532-nm Δτ, Repeat 1 [5] [ns]","532-nm Δτ, Repeat 2 [5] [ns]",532-nm z-score (based on avg Δτ) [5],effect on FLT of TMR-cC0-C2 (in words) [1],effect on FLT of TMR-cC0-C2 in the initial screen (in words) [5],effect on FLT-FRET / binding between FMAL-actin and TMR-cC0-C2 (in words) [6]
CC1(C)CC[C@]2(C(=O)O)CC[C@]3(C)C(=CC[C@@H]4[C@@]5(C)CC[C@H](O)[C@@](C)(CO)[C@@H]5CC[C@]43C)[C@@H]2C1 [Hederagenin],0.7,2.5,3.6,1.1,2.3,0.083,0.060,4.06,-0.038,-0.038,-2.29,,,
Cc1nc(-c2ccc(OCC(C)C)c(C#N)c2)sc1C(=O)O [Febuxostat],0.8,9.6,12.1,0.7,14.6,0.070,0.043,3.18,0.129,0.132,8.01,,,
Oc1cccc2cccnc12 [8-Hydroxyquinoline],,,,,,-0.025,-0.188,-5.91,-0.167,-0.285,-13.76,did not,strongly reduced,
O=C(Nc1ccc(Cl)cc1)Nc1ccc(Cl)c(Cl)c1 [Triclocarban],0.6,11.6,18.2,0.5,22.2,-0.128,-0.042,-4.72,0.374,0.415,24.12,,,
Cc1cn(-c2cc(NC(=O)c3ccc(C)c(Nc4nccc(-c5cccnc5)n4)c3)cc(C(F)(F)F)c2)cn1.Cl [Nilotinib hydrochloride],0.7,10.1,14.1,0.6,15.6,-0.063,-0.031,-2.59,0.121,0.105,6.94,,,
Cc1ccc(Nc2c(F)cccc2Cl)c(CC(=O)O)c1 [Lumiracoxib],,,,,,0.093,0.064,4.45,-0.054,-0.036,-2.72,,,decrease
CCCCCCCCCCCCCCCC(=O)O[C@@H]1[C@@H](O)[C@@H](O)[C@@H]([C@H](NC(=O)[C@@H]2C[C@@H](CCC)CN2C)[C@H](C)Cl)O[C@@H]1SC.Cl [Clindamycin palmitate HCl],,−12.7,,,,-0.304,-0.358,-18.47,-0.075,-0.094,-5.12,,,
"CN(C)[C@@H]1C(O)=C(C(N)=O)C(=O)[C@@]2(O)C(O)=C3C(=O)c4c(O)cccc4[C@@](C)(O)[C@H]3[C@H](O)[C@@H]12 [Oxytetracycline (Terramycin), Oxytetracycline]",,,,,,0.175,0.122,8.34,-0.019,-0.057,-2.29,,,
"CNC(=O)c1cc(Oc2ccc(NC(=O)Nc3ccc(Cl)c(C(F)(F)F)c3)c(F)c2)ccn1 [Regorafenib (BAY 73-4506), Regorafenib]",,,,,,-0.029,-0.026,-1.50,0.099,0.102,6.17,,,
O=C(O)c1cc(/N=N/c2ccc(O)c(C(=O)O)c2)ccc1O [Olsalazine Sodium],,,,,,0.202,0.096,8.38,-0.057,-0.123,-5.46,,,
CN1CCCN=C1/C=C/c1cccs1 [Pyrantel pamoate],,,,,,0.313,0.250,15.79,-0.043,-0.100,-4.32,,,
O=c1cc(-c2ccc(O)c(O)c2)oc2cc(O)cc(O)c12 [Luteolin],,,,,,-0.309,-0.214,-14.58,-0.277,-0.302,-17.63,,,
CCCCNc1ccc(C(=O)OCCOCCOCCOCCOCCOCCOCCOCCOCCOC)cc1 [Benzonatate],,,,,,0.108,-0.001,3.05,-0.101,-0.124,-6.82,did not,strongly reduced,
CCN(CC)CCCC(C)Nc1ccnc2cc(Cl)ccc12 (stereo not shown) [Chloroquine phosphate],,2.5,,,1.9,-0.042,-0.069,-3.07,0.311,0.320,19.30,,,

# Source: publication PMC10692721, “Drug discovery for heart failure targeting myosin-binding protein C” (The Journal of Biological Chemistry, 2023)
